Laboratory results from ChEMBL document CHEMBL1201862, “PubChem BioAssay data set” (2004).
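Compound exposure: 48 hours, 5 concentrations, 96-well plates. GI50 is the concentration that inhibits growth by half.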 The source made the active and inactive calls. Rule as the data show it: active = GI50 up to about 1.1 µM and inactive = higher.

How the values were obtained:
Experiment in all cases: growth of human tumour cells (NCI), 48 h
[1] = system: T47D
[2] = system: SNB-75
[3] = system: OVCAR-3
[4] = system: Hs-578T
[5] = system: SK-MEL-2
[6] = system: IGROV-1
[7] = system: OVCAR-5
[8] = system: NCI-H226
[9] = system: CAKI-1
[10] = system: SW-620
[11] = system: OVCAR-8
[12] = system: MOLT-4
[13] = system: SF-539
[14] = system: HL-60
[15] = system: MDA-MB-231
[16] = system: UACC-62
[17] = system: A498
[18] = system: TK-10
[19] = system: LOX IMVI
[20] = system: RPMI-8226

Row | Structure (SMILES) | GI50 [1] | GI50 [2] | GI50 [3] | GI50 [4] | GI50 [5] | GI50 [6] | GI50 [7] | GI50 [8] | GI50 [9] | GI50 [10] | GI50 [11] | GI50 [12] | GI50 [13] | GI50 [14] | GI50 [15] | GI50 [16] | GI50 [17] | GI50 [18] | GI50 [19] | GI50 [20]
1 | COc1ccc(C2C(C)C(=O)C(C)C(c3ccc(OC)cc3)N2N=O)cc1 (stereo not given) | 127 µM (inactive) | 26.5 µM (inactive) | 454 µM (inactive) | 56.5 µM (inactive) | 215 µM (inactive) | 165 µM (inactive) | 393 µM (inactive) | 207 µM (inactive) | 246 µM (inactive) | > 1000 µM (inactive) | 340 µM (inactive) | > 789 µM (inactive) | > 75.5 µM (inactive) | > 1000 µM (inactive) | 27.2 µM (inactive) | > 506 µM (inactive) | 203 µM (inactive) | 90.6 µM (inactive) | 453 µM (inactive) | > 1000 µM (inactive)
2 | CC(C)C[C@H]1[C@@H](OCc2ccccc2)COS(=O)(=O)N1[C@H](C)c1ccccc1 | 2.9 µM (inactive) | > 46.7 µM (inactive) | 20.6 µM (inactive) | > 100 µM (inactive) | 44.6 µM (inactive) | > 100 µM (inactive) | > 100 µM (inactive) | > 92 µM (inactive) | > 100 µM (inactive) | > 100 µM (inactive) | > 61.5 µM (inactive) | 3.8 µM (inactive) | > 100 µM (inactive) | 6.11 µM (inactive) | 48 µM (inactive) | > 100 µM (inactive) | > 100 µM (inactive) | 83 µM (inactive) | 13.4 µM (inactive) | 4.05 µM (inactive)
3 | Cc1cnc(NCCCN(C)C)c2c1[nH]c1ccc3cc(O)ccc3c12 | 0.485 µM (active) | 0.555 µM (active) | 0.505 µM (active) | 0.325 µM (active) | 1.03 µM (active) | 1.19 µM (inactive) | 0.925 µM (active) | 0.435 µM (active) | 0.566 µM (active) | 0.166 µM (active) | 0.2 µM (active) | 0.0181 µM (active) | 0.508 µM (active) | 3.32 µM (inactive) | 0.879 µM (active) | 0.678 µM (active) | 1.56 µM (inactive) | 6.04 µM (inactive) | 0.247 µM (active) | 0.6 µM (active)
4 | CN1CCCCC1CCN1c2ccccc2Sc2ccc([S+](C)[O-])cc21 (stereo not given) [MESORIDAZINE] | > 100 µM (inactive) | > 100 µM (inactive) | > 100 µM (inactive) | > 100 µM (inactive) | > 100 µM (inactive) | > 100 µM (inactive) | > 100 µM (inactive) | > 100 µM (inactive) | > 100 µM (inactive) | > 100 µM (inactive) | > 100 µM (inactive) | > 100 µM (inactive) | > 100 µM (inactive) | > 100 µM (inactive) | > 100 µM (inactive) | > 100 µM (inactive) | > 100 µM (inactive) | > 100 µM (inactive) | > 100 µM (inactive) | > 100 µM (inactive)
